Values of other authors as cited in patent US10398729B2, “Method for treating Alzheimer's disease” (priority 2012, dated 2019).

Legend:
[1] = system: patients with mild-to-moderate AD
[2] = system: primary human fibroblast cells (IMR-90); settings: IMR-90 cells in vitro
hepatoma cells SMMC-7721 = settings: 20.0 μmol/L chromic chloride
[3] = system: elderly adults with early memory decline
brain functions = settings: prolonged intranasal administration

For `C=C1/C(=C\C=C2/CCC[C@]3(C)[C@@H]([C@H](C)CCCC(C)(C)O)CC[C@@H]23)C[C@@H](O)C[C@@H]1O` [1,25D3, 1alpha,25-dihydroxyvitamin D3], the apoptosis (macrophages) is listed as “protecting against apoptosis” and the “Abeta phagocytosis and clearance” value (macrophages; studied in combination with curcuminoids) is listed as “strongly stimulated”.

For `CCCCCCCC(=O)OCC(COC(=O)CCCCCCC)OC(=O)CCCCCCC` [AC-1202], the memory and cognition [1] is listed as “improves memory and cognition”.

For `CC(C)(C)NO` [N-tert-butylhydroxylamine (NtBHA), N-tert-butylhydroxylamine], the “senescence-related and H2O2-stimulated iron accumulation” value [2] is given as “attenuated”.

In the case of `[Cl][Cr]([Cl])[Cl]` [chromic chloride], the telomere lengths (hepatoma cells SMMC-7721) is given as “remarkably extended the telomere lengths”.

For chromium picolinate, the “cognitive performance and brain function” value [3] is given as “can improve cognitive performance and brain function”.

For insulin, the memory and mood (brain functions) is given as “improving memory and mood” and the systemic side effects (brain functions) is given as “absence of systemic side effects”.
